In test [1] the test system is MTA2. Put plainly: Competition binding assay in cell lysate, affinity matrix, MS (Mi-2/NuRD interactor).
Test [2] concerns the target T1, HSPD1 (Homo sapiens, UniProt P10809).
T1 construct: endogenous in cells
Briefly: Competition binding assay in cell lysate, affinity matrix, MS.

In test [3] the target is T2, BZW2 (Homo sapiens, UniProt Q9Y6E2).
T2 construct: endogenous in cells
T2 sequence (Q9Y6E2 1-419): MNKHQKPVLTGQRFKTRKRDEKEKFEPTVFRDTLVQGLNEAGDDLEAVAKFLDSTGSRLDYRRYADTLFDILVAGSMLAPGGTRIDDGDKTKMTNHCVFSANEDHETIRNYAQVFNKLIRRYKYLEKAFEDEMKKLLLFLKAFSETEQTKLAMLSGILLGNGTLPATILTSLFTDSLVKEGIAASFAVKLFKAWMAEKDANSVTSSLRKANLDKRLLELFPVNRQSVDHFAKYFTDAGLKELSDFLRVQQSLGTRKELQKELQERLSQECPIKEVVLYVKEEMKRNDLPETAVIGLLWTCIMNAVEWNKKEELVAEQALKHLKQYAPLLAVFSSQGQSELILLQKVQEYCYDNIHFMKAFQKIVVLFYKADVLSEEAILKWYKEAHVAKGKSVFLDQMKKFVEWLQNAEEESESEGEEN
The description is as above.

For test [4], the target named is T3, ALDH2 (Homo sapiens, UniProt P05091).
T3 construct: endogenous in cells
T3 sequence (P05091 18-517): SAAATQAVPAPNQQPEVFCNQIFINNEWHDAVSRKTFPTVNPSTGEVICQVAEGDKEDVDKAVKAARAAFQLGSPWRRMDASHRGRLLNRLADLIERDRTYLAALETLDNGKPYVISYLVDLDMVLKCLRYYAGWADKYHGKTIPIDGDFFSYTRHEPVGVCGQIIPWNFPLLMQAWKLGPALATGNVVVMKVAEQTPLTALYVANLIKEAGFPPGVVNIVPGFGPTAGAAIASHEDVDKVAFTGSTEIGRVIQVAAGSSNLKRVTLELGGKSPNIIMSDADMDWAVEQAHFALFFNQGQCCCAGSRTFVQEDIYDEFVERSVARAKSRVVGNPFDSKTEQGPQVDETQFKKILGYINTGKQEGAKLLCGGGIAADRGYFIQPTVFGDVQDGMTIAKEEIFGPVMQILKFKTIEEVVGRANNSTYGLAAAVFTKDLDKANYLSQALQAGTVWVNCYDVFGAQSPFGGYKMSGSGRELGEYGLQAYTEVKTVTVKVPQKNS
The test is described as above.

The subject of test [5] is SMARCC2. Briefly: Competition binding assay in cell lysate, affinity matrix, MS (SMRT/NCoR interactor).
Test [6] concerns the target T4, PPP4C (Homo sapiens, UniProt P60510).
T4 construct: endogenous in cells
T4 sequence (P60510 1-307): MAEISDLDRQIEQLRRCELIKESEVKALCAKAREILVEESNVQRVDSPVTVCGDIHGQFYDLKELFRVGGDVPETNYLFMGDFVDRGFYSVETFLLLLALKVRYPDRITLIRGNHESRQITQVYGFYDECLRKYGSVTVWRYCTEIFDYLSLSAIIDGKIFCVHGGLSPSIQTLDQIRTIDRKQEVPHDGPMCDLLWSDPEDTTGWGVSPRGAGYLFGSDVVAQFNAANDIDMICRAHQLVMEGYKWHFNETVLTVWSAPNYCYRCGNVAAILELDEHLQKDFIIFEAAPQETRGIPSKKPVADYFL
Briefly: Competition binding assay in cell lysate, affinity matrix, MS.

The test system of test [7] is GATAD2B. Put plainly: Competition binding assay in cell lysate, affinity matrix, MS (Mi-2/NuRD interactor). The conditions noted are these: K-562 cell lysate.
The subject of test [8] is RBBP7. Briefly: Competition binding assay in cell lysate, affinity matrix, MS (Sin3/Mi2-NuRD interactor). The conditions noted are these: K-562 cell lysate.
Test [9] relates to MTA3. Briefly: Competition binding assay in cell lysate, affinity matrix, MS (Mi-2/NuRD interactor).
Test [10] deals with TRERF1. The format is binding, human. The conditions noted are these: protein TRERF1; ELSA (ELM-SANT) domain proteins; read-out: Kd^app TRERF1.
The target in test [11] is T5, APOBEC3C (Homo sapiens, UniProt Q9NRW3).
T5 construct: endogenous in cells
Briefly: Competition binding assay in cell lysate, affinity matrix, MS.

The target in test [12] is T6, HDAC8 (Homo sapiens, UniProt Q9BY41).
T6 construct: used to probe endogenous HDACs in K562 whole cell extracts; endogenous in cells
Put plainly: Chemoproteomic binding profiling, K562 cell extract, SAHA/ITF2357 probe matrix (Kd app). The note with it: protein HDAC8; class I HDAC.

Test [13] concerns the target MiDAC complex (HDAC1/2, DNTTIP1, CDYL, MIDEAS) (Homo sapiens, UniProt Q13547+Q92769). The test is described as above. On the set-up: rows headed: Kd^app CDYL; other: protein CDYL; MiDAC complex. The note with it: protein CDYL.
For test [14], the target named is HDAC3-NCoR complex (Homo sapiens, UniProt O15379). The test is described as above.
The target of test [15] is T7, HDAC3 (Homo sapiens, UniProt O15379).
T7 construct: used to probe endogenous HDACs in K562 whole cell extracts; endogenous in cells
The test is described as above. The conditions noted are these: for Kd: protein HDAC3, NCoR complex.

Test [16] addresses T8, HDAC2 (Homo sapiens, UniProt Q92769).
T8 construct: used to probe endogenous HDACs in K562 whole cell extracts; endogenous in cells
The description is as above. The note with it: protein HDAC2; class I HDAC.

For test [17], the target named is Sin3 complex (Homo sapiens, UniProt Q13547+Q92769). Described as above.
Test [18] has as its system Sin3 complex. The test is described as above. On the set-up: species or system human.
Setting [19] is: mix of Jurkat and Ramos cell lysates.
[20] abbreviates: protein GPS2, read-out: Kd^app GPS2.
[21] abbreviates: protein NCOR1, read-out: Kd^app NCOR1.
The mark [22] stands for this setting: protein NCOR2, read-out: Kd^app NCOR2.
Where [23] appears, read: protein TBL1X, read-out: Kd^app TBL1X.
Where [24] appears, read: protein TBL1XR1, read-out: Kd^app TBL1XR1.
[25] abbreviates: protein SAP30, read-out: Kd^app SAP30.
Setting [26] is: protein SIN3A, read-out: Kd^app SIN3A.
The mark [27] stands for this setting: protein SIN3B, read-out: Kd^app SIN3B.

Where “and” joins values, the source holds several entries; their conditions need not be identical. Identical values can stand only once. Like-named read-outs stand apart in the source and are kept apart here.

As usually defined, the IC50 is the concentration that inhibits the measured activity by half.

T7 sequence (O15379 whole entry): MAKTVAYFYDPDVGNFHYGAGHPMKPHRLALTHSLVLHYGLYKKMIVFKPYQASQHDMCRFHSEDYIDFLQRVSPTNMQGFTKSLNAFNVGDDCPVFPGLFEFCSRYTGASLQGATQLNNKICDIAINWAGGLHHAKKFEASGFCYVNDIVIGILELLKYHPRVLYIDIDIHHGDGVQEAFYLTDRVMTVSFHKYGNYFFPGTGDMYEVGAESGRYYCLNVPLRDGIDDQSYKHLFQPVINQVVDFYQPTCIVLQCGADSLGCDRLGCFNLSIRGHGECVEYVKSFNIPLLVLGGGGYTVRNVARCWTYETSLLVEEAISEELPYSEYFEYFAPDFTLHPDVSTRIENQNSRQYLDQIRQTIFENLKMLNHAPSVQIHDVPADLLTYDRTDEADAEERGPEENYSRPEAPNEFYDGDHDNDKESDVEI
T7 sequence (O75376 whole entry partner): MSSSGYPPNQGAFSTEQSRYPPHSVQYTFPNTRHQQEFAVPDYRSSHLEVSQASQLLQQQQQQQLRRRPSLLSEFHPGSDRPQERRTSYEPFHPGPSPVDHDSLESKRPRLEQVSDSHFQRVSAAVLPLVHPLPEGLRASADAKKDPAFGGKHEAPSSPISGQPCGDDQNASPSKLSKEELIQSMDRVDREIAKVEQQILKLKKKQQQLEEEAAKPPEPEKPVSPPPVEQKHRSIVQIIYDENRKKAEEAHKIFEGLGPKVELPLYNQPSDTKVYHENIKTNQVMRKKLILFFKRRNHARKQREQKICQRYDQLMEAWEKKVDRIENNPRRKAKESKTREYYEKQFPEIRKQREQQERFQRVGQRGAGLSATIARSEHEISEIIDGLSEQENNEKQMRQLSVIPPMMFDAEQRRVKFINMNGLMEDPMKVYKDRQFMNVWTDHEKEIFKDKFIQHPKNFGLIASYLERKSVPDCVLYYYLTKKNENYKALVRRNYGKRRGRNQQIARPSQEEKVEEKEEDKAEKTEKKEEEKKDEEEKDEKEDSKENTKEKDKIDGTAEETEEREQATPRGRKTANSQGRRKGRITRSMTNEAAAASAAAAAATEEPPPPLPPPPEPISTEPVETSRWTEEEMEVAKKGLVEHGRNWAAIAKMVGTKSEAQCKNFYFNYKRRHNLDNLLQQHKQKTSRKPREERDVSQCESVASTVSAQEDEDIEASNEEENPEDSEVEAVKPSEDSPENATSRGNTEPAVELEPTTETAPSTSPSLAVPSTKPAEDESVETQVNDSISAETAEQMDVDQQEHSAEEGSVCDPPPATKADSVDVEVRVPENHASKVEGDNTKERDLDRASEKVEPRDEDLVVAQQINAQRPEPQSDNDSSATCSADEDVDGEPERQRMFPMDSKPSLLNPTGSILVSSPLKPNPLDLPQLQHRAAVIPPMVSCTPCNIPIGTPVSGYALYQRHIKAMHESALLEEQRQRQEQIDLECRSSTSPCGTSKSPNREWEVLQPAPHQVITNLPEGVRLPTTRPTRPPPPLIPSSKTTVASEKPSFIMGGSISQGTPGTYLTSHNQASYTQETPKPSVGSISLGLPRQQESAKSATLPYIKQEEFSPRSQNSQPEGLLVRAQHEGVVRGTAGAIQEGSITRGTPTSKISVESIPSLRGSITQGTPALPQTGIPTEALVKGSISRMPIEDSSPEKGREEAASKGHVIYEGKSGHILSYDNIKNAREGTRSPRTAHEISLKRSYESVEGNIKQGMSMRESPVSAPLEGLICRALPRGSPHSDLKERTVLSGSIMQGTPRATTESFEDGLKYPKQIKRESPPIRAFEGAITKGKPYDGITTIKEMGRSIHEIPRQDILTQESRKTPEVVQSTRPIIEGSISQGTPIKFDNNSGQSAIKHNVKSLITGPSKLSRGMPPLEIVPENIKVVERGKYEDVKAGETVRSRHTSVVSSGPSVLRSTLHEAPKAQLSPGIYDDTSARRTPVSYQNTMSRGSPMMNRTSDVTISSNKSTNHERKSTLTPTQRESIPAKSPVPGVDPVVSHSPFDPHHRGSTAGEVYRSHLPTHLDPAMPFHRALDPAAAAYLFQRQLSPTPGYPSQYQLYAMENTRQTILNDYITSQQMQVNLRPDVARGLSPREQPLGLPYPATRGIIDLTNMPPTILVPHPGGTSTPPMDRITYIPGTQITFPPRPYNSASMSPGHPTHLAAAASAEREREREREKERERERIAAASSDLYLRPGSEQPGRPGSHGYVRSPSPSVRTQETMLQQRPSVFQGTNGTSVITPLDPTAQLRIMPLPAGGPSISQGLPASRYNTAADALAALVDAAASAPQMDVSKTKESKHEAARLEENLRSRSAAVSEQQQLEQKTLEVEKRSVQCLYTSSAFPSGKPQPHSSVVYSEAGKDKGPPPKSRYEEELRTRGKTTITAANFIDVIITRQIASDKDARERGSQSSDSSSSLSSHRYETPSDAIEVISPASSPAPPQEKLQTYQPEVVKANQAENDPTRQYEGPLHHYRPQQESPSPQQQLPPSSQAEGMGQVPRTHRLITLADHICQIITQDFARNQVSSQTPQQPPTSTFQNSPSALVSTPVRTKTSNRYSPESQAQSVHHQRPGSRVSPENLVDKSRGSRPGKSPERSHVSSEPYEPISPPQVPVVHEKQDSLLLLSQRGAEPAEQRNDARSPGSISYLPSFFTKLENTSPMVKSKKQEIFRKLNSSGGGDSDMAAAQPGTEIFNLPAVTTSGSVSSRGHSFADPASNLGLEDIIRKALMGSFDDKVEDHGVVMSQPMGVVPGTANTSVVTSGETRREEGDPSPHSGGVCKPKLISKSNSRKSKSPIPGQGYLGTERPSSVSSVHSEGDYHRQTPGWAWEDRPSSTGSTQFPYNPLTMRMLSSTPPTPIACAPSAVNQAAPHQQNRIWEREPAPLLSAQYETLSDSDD
T7 sequence (O60907 whole entry partner): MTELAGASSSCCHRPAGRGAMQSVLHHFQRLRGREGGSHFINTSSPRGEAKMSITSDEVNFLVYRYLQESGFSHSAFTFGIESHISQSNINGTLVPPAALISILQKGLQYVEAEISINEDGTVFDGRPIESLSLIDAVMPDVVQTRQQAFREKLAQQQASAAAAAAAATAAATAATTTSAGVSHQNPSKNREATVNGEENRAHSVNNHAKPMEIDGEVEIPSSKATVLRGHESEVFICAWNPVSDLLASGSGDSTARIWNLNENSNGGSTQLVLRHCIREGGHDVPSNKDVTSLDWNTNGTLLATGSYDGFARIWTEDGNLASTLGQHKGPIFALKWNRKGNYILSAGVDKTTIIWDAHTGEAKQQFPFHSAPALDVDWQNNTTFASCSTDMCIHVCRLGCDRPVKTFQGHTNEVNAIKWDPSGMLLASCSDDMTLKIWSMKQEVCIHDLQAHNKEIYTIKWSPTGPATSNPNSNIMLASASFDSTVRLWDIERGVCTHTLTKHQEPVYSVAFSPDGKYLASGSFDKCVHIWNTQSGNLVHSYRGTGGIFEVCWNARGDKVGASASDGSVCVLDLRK
T7 sequence (Q9BZK7 whole entry partner): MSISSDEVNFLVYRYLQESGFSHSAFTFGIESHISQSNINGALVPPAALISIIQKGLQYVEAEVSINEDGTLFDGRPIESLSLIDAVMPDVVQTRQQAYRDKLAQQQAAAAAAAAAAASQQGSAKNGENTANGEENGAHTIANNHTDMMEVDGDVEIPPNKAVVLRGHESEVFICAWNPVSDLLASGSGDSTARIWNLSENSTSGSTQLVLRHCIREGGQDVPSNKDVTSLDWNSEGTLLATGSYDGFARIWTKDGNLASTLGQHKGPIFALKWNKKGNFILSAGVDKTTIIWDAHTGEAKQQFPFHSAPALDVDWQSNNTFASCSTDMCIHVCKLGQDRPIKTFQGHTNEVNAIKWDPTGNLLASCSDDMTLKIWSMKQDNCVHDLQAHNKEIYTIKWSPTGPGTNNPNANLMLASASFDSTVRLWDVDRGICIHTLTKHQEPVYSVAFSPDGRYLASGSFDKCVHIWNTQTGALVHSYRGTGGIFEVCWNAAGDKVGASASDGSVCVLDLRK
T7 sequence (Q13227 whole entry partner): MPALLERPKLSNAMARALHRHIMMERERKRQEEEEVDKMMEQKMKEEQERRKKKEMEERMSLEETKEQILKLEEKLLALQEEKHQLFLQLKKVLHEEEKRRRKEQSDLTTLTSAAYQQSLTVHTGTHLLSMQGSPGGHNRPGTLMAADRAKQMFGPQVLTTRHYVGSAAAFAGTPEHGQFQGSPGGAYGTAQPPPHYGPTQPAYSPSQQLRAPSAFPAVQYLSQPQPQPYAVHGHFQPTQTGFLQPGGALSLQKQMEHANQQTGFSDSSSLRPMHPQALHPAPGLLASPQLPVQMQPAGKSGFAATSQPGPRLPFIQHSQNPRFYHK
Chain of HDAC3-NCoR complex (O15379 whole entry, one chain of several): as the sequence (O15379 whole entry) above
T1 sequence (P10809 27-573): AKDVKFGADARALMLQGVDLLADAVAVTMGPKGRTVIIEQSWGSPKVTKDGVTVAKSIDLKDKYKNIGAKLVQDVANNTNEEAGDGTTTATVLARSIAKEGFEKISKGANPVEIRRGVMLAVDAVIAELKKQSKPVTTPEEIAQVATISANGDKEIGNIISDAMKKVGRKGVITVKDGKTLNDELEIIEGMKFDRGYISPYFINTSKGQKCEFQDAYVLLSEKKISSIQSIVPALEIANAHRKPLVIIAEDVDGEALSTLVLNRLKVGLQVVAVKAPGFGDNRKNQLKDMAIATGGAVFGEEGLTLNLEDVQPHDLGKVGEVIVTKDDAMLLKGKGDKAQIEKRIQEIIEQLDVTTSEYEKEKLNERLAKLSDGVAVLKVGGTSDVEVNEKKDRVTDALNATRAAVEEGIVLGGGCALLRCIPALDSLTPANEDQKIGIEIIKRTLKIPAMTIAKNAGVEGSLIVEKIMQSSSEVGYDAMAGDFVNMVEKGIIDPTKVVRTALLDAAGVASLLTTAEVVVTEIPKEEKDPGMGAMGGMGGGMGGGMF
T5 sequence (Q9NRW3 whole entry): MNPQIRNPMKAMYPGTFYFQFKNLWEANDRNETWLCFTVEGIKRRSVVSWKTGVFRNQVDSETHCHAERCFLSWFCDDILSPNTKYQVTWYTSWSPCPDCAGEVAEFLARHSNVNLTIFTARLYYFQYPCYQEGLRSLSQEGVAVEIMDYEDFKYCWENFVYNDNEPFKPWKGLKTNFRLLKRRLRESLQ

In the case of `O=C(CCCCCCC(=O)Nc1ccccc1)NO` [SAHA, suberoylanilide hydroxamic acid], the IC50 was 10 µM in test [1] (K-562 cell lysate); 0.53 µM in [1] (setting [19]); 10 µM in test [2] (IC50, HSPD1, mix of Jurkat and Ramos cell lysates); not below 10 µM in test [2] (read-out: IC50); 3.07 µM in test [3] (IC50, BZW2, K-562 cell lysate); 10 µM in test [3] (IC50, BZW2, mix of Jurkat and Ramos cell lysates). The IC50 in test [4] (IC50, ALDH2, K-562 cell lysate) is 0.63 µM; in test [4] (IC50, ALDH2, mix of Jurkat and Ramos cell lysates) it was 4.81 µM; in test [5] (K-562 cell lysate), 10 µM; in [5] (setting [19]), 10 µM; in [6] (IC50, PPP4C, mix of Jurkat and Ramos cell lysates) it was 10 µM; in test [6] (read-out: IC50), not below 10 µM. The IC50 was 2.5 µM in test [7]; 10 µM in test [8]; 1.93 µM in test [9] (K-562 cell lysate); 1.8 µM and 1.82 µM in test [9] (setting [19]).

`Nc1ccccc1NC(=O)c1ccc(CNC(=O)OCc2cccnc2)cc1` [MS-275]: the half-maximal inhibitory concentration (IC50) in test [1] (K-562 cell lysate) was 300 µM; in [2] (read-out: IC50), not below 300 µM; in test [3] (read-out: IC50), not below 300 µM; in test [4] (read-out: IC50) it was not below 300 µM; in test [5] (K-562 cell lysate) it was 300 µM; in test [6] (read-out: IC50), not below 300 µM. In addition, the IC50 was 300 µM in test [7], 300 µM in test [8], not below 300 µM in [11] and 300 µM in test [9] (K-562 cell lysate). Further, in [10], the Kd was more than 300 µM.

Turning to `CCCCOc1ccc(CC(=O)NO)cc1` [bufexamac], the Kd in test [12] is 243 µM; in [13], 151 µM; in [14] (setting [20]), 599 µM; in test [14] (setting [21]), more than 59.7 µM; in [14] (setting [22]) it was 418 µM; in [14] (setting [23]) it was 542 µM. The Kd in [14] (setting [24]) was 530 µM; in test [15] it was 348 µM; in test [16] it was more than 59.7 µM; in test [17] (setting [25]) it was 125 µM; in [17] (setting [26]), 185 µM; in [17] (setting [27]), more than 59.7 µM.

As to `Nc1ccccc1NC(=O)CCCCCCC(=O)Nc1ccccc1` [BML-210], the Kd in [12] is more than 85 µM; in test [13] it was more than 85 µM; in test [14] (setting [20]) it was 4 µM; in test [14] (setting [21]), 7 µM; in [14] (setting [22]), 15 µM; in test [14] (setting [23]) it was 4 µM. Also, the Kd in test [14] (setting [24]) is 4 µM; in test [15] it was 7 µM; in [16] it was 35 µM; in test [18] (setting [25]) it was more than 85 µM; in [18] (setting [26]) it was more than 85 µM; in [18] (setting [27]), more than 85 µM. For the same molecule, the “selectivity for HDAC3 over HDAC1/HDAC2 (in words)” value in test [15] (K562 cell extract, compared with SAHA) is given as “increase in selectivity for HDAC3 over HDAC1/HDAC2”.

The values above are taken from patent US20130071854A1, “METHODS FOR THE IDENTIFICATION AND CHARACTERIZATION OF HDAC INTERACTING COMPOUNDS” (priority 2009, published 2013).
